What was measured:
RTG-2 cells = assay: MLN4924 cytotoxicity test (cell viability assay) in RTG-2 cells; assay type: cell-based, rainbow trout (Oncorhynchus mykiss); details: wild type RTG-2 cells; 0.1, 1 and 5 uM; 24, 48, 72 and 96 hours post treatment
Procedure: Initially, four different concentrations of MLN4924 0 (DMSO-only), 0.1, 1 and 5 uM, were tested in fresh RTG-2 cells to investigate if they exerted toxicity in wild type RTG-2 cells. A cell viability assay was used to assess any present cytopathic effect at four different time points: 24, 48, 72 and 96 hours post treatment with the four different concentrations of the inhibitor.

SHK-1 cells = assay: MLN4924 cell viability in SHK-1 cells; assay type: cell-based, Atlantic salmon; details: MLN4924 treatment compared to DMSO-treated controls
Procedure: Lyophilised MLN4924 (pevonedistat) was resuspended in DMSO. MLN4924 was titrated for cytotoxicity on CHSE-214 and SHK-1 cells. SHK-1 or CHSE-214 cells were seeded at 80% confluency and treated with 0 (DMSO only), 100 nM, 1 μM or 5 μM MLN4924 for 24 hours prior to inoculation with IPNV at an MOI of 0.01. The impact of the MLN4924 on cell viability was assessed by sampling at 24, 48, 72, and 96 hpi and comparing cell survival in all challenged groups (including the DMSO control) versus the unchallenged control at the same timepoint.

DNA and RNA viruses = details: in vitro, multitude of DNA and RNA viruses (ref 15); cited from earlier work
IPNV viral proteins = assay: Western blot of IPNV viral proteins from MLN4924-treated SHK-1 cells; assay type: cell-based, infectious pancreatic necrosis virus; details: SHK-1 cells treated with MLN4924 or DMSO, 120 h, MOI 0.01
Procedure: To evaluate the infectivity of viral output, cells and supernatant were harvested at 120 hpi and assessed by TCID50 on naïve CHSE-214 cells. For semi-quantification of viral protein output, western blot against viral proteins was performed. At 120 hpi, supernatant from a 150 mm dishes containing SHK-1 cells treated with either 100 nM MLN4924 or DMSO for 24 hours before infection with IPNV at an MOI of 0.01 was collected, sterile filtered, and ultra-centrifuged at 22000 x g for 1 hour. The ultra-centrifuged virus pellet from the supernatant was resuspended in Laemmli buffer. The cell-associated virus was also analysed by harvesting cells in Laemmli buffer. These samples were separated by PAGE (4-15% Mini-Protean, BIORAD), transferred onto nitrocellulose membrane, and the viral protein was visualised using a monoclonal antibody that recognises all IPN viral proteins, and secondary LICOR antibodies.

IPNV [1] = assay: Supernatant infectivity assay (TCID50) of MLN4924 and IPNV-treated RTG-2 cells; assay type: cell-based, infectious pancreatic necrosis virus
Procedure: Wild type RTG-2 cells were seeded in 4× quadruplicates in 24-well plates and were allowed to settle for 24 hours. The four quadruplicates were then treated with DMSO-only, 0.1, 1 and 5 uM of MLN4924, respectively. 24 hours after the MLN4924 treatment, the inhibitor inoculum was removed and IPNV in a dose of 10-5 TCID50/mL was inoculated in the cells, along with the four doses of MLN4924. Supernatants were collected at 48 and 72 hpi, and were stored at −80° C. until use.
TCID50 (Median Tissue Culture Infectious Dose) assay was used to assess the titer of the viral supernatants, harvested from the MLN4924 and IPNV-treated cells at 72 hpi. Firstly, 20,000 cells/well were seeded in wells of a 96-well plate (in four rows of 10 wells for each supernatant, for 4 replicates) and were allowed to settle and grow overnight. The following day, the media was removed with a multichannel pipette and replaced with serial 10-fold dilutions (starting from the neat original viral supernatants up to 10^−7 dilution). The latter were prepared in 2% FBS media (with penicillin streptomycin). The seeded cells were inoculated with these serial dilutions (four replicates per virus dilution, 100 uL/96-well). The last two wells of each row were used as controls, meaning that no virus was added there, only media. The 96-well plate was incubated at 15° C. for the duration of the experiment. The Cytopathic Effect (CPE) of the viral infection was assessed using CellTiter-Glo® Luminescent Cell Viability Assay (Promega, Madison, USA), at 30 hpi. The 50% endpoint titer was further calculated using the Reed and Muench method^16.
MLN4924 inhibitor was used to inhibit nae1 activity. Four supernatants of each dose group collected from the MLN4924 and IPNV-treated cells at 72 hpi were tested in two independent TCID50 infectivity assays followed by a cell viability assay at 30 hpi and use of the Reed and Muench method to analyze the cytopathic effect present in the wells.

IPNV [2] = assay: IPNV viral load (VP2 qRT-PCR) in MLN4924-treated SHK-1 cells; assay type: cell-based, infectious pancreatic necrosis virus; details: 100 nM MLN4924 24 hours prior to infection, during the course of infection, vs DMSO only
Procedure: To evaluate the viral load in cells, relative transcript level of IPNV VP2 to ef1a in the total RNAs was analysed by qRT-PCR using Luna Universal One-Step RT-qPCR reagent (NEB, Ipswich, USA) and LightCycler 480 Instrument (Roche, Basel, Switzerland) in duplicates. Each reaction consisted of 0.5 μL RNAs, 1× Reaction Mix, 1× Enzyme Mix, 0.4 μM each primer (Supplementary Table 4) and nuclease-free water up to 10 μL. The thermocycling initiated with reverse transcription at 55° C. for 10 min and initial denaturation at 95° C. for 1 min, followed by 40 cycles of denaturation at 95° C. for 10 sec and extension at 60° C. for 30 sec with plate read, and melt curve analysis. Efficiency and linearity (R^2) of each primer pair were checked using serial dilution of total RNAs in duplicates. The relative viral transcript level of IPNV VP2 versus ef1a in the KO SHK-1 cells compared to wild type SHK-1 cells at each timepoint was calculated using 2^−ΔΔCT.
Lyophilised MLN4924 (pevonedistat) was resuspended in DMSO. MLN4924 was titrated for cytotoxicity on CHSE-214 and SHK-1 cells. […] The impact of the MLN4924 on cell viability was assessed by sampling at 24, 48, 72, and 96 hpi and comparing cell survival in all challenged groups (including the DMSO control) versus the unchallenged control at the same timepoint.

NS(=O)(=O)OC[C@@H]1C[C@@H](n2ccc3c(N[C@H]4CCc5ccccc54)ncnc32)C[C@@H]1O [MLN4924]
cytotoxicity (cell viability assay) (RTG-2 cells): none of the doses were cytotoxic | cell viability (SHK-1 cells): no associated decrease in cell viability | anti-viral activity (DNA and RNA viruses): broad-acting anti-viral activity | abundance of IPNV viral proteins (western blot) (IPNV viral proteins): notable decrease | productive IPNV viral output (TCID50) (IPNV [1]; 0.1 μM MLN4924, 72 hpi supernatants): effect similar to the DMSO-only cell group | productive IPNV viral output (TCID50) (IPNV [1]; 1 μM MLN4924, 72 hpi supernatants, vs DMSO-only): marked drop | productive IPNV viral output (TCID50) (IPNV [1]; 5 μM MLN4924, 72 hpi supernatants, vs DMSO-only): marked drop | IPNV RNA copy number (IPNV [2]): little difference
